Publication PMC8199124, “Design, Synthesis and In-Vitro Biological Evaluation of Antofine and Tylophorine Prodrugs as Hypoxia-Targeted Anticancer Agents” (Molecules, 2021)
≈ marks a conversion by molar mass, not a printed value. Read-outs that look alike come from different tables or passages of the source.

Assays:
[1] = Solubility in PBS (pH 7.4); format: physicochemical; conditions: aqueous buffer, mean ± SE
Procedure: (§1) Water solubility, logD, and PAMPA-BBB were evaluated using the protocols we previously described.

HCT116 [2] = experiment: Cytotoxicity under normoxia and hypoxia (anaerobic chamber, sulphorhodamine B), HCT116; format: cell-based, human; conditions: for IC50: 4 h exposure, 5 days growth
Procedure: (§2) We also checked if the designed prodrugs were able to liberate the active alkaloids in hypoxic tumors by testing them under hypoxic conditions using an anaerobic chamber. The three prodrugs 5a–c and their parent alkaloids as well as the reference compounds PR-104A, the parent alcohol form of the phosphate pre-prodrug PR-104, and evofosfamide were tested using the HCT116 and H460 cell lines under both normoxic and hypoxic conditions (Table 5). The prodrugs were much less cytotoxic than the parent drugs, in agreement with our observations using the other cell lines described above (Figure 6).
(§3) The extent to which a prodrug is deactivated relative to its parent drug under normoxic conditions is defined as the Deactivation Ratio (DR). The DR can be simply calculated as DR = IC50 (prodrug)/IC50 (parent drug).
(§4) The efficacy of prodrug activation under hypoxic conditions can be expressed by the Hypoxia Cytotoxicity Ratio (HCR), which can be calculated for a given prodrug as: HCR = normoxic IC50/hypoxic IC50.
(§5) The eight cell lines HEK293 (Human embryonic kidney 293), CHO-K1 (Chinese hamster ovary K1), MCF-7 cells (Human breast adenocarcinoma), HCT116 (human colorectal carcinoma), RKO (Human rectal carcinoma), SW480 (human colorectal carcinoma), H460 (Human lung cancer), and MRC5 (Normal human foetal lung fibroblast), were obtained from the ATCC. The cell lines were routinely grown in alpha minimum essential medium (α-MEM) containing 5% foetal calf serum (FCS). The appropriate number of cells (HCT116 = 400 cells/well, H460 cells = 600 cells/well) were seeded into 96-well plates under normoxic or hypoxic conditions. Cells were plated in 100 µL α-MEM containing 10% FCS, 10mM D-Glucose and 0.2mM 2′-deoxycytidine. After incubation for 2 h, the compounds were added at the appropriate concentration and incubated for further 4 h. The cells were then washed three times with drug-free α-MEM (containing 5% FCS and pen/strep). The plates were then incubated for 5 days under normoxic conditions. The cells were stained with sulphorhodamine B to measure total cells. The IC50 was determined by interpolation as the compound concentration reducing staining to 50% of controls on the same plate.

H460 = experiment: Cytotoxicity under normoxia and hypoxia (anaerobic chamber, sulphorhodamine B), H460; format: cell-based, human; conditions: for IC50: 4 h exposure, 5 days growth
Procedure: as §2, §3, §4, §5

[3] = BBB-Parallel Artificial Membrane Permeability Assay (BBB-PAMPA); format: in vitro ADME; conditions: mean ± SE
Procedure: The physicochemical properties of the new compounds were evaluated (Table 1). […] Consequently, these derivatives lost their BBB penetrability, as predicted by the BBB-Parallel Artificial Membrane Permeability Assay (BBB-PAMPA), whereas their parent alkaloids had free passage through the BBB.
as §1

LogD determination = format: physicochemical; conditions: mean ± SE
Procedure: as §1

HCT116 [4] = experiment: Cytotoxicity (MTT) under normoxia, HCT116; format: cell-based; conditions: Homo sapiens
Procedure: (§6) The cytotoxicity of the compounds 5a–c and their parent alkaloids was evaluated by the 3-[4,5-dimethylthiazole-2-yl]-2,5-diphenyltetrazolium bromide (MTT) assay against 5 cancerous and 2 non-cancerous cell lines (Table 4).
as §5

MRC5 = experiment: Cytotoxicity (MTT) under normoxia, MRC5; format: cell-based; conditions: Homo sapiens
Procedure: as §6, §5

CHO-K1 = experiment: Cytotoxicity (MTT) under normoxia, CHO-K1; format: cell-based, Chinese hamster; conditions: Cricetulus griseus
Procedure: as §6, §5

[5] = Plasma protein binding (PPB); format: in vitro ADME; conditions: mean ± SE, read-out: PPB (% of Bound Compound) (converted)
Procedure: The physicochemical properties of the new compounds were evaluated (Table 1).

MCF7 = experiment: Cytotoxicity (MTT) under normoxia, MCF7; format: cell-based; conditions: Homo sapiens
Procedure: as §6, §5

HEK293 = experiment: Cytotoxicity (MTT) under normoxia, HEK293; format: cell-based; conditions: Homo sapiens
Procedure: as §6, §5

[6] = Mouse microsomal liver stability assay; conditions: male, Balb/c, pH 7.4; for half-life at 2 μM: microsomes
Procedure: Mouse hepatic microsomes were isolated from pooled, perfused livers of Balb/c male mice according to the standard protocol. […] Microsomal incubations were carried out in 96-well plates in 5 aliquots of 40 μL each. […] Control incubations were performed by replacing the NADPH-cofactor system with PBS. The additional control incubations in PBS (with 3.3 mM MgCl2) without added microsomes were carried out in this study. […] The incubations were performed in duplicates. Five time points over 40 min had been analyzed. The reactions were stopped by adding 12 volumes of 90% acetonitrile-water to incubation aliquots, followed by protein sedimentation by centrifuging at 5500 rpm for 3 min. The supernatants were analyzed using LC-MS as mentioned above.

SW480 = experiment: Cytotoxicity (MTT) under normoxia, SW480; format: cell-based; conditions: Homo sapiens
Procedure: as §6, §5

RKO = experiment: Cytotoxicity (MTT) under normoxia, RKO; format: cell-based; conditions: Homo sapiens, read-out: IC50 RKO
Procedure: as §6, §5

[7] = Human plasma stability test; format: in vitro ADME; conditions: 37 °C, up to 24 h, read-out: t1/2 (Human Plasma) (converted)
Procedure: (§7) Incubations were carried out in 6 aliquots of 70 μL each in duplicates. […] The reactions were stopped by adding 350 μL of acetonitrile with subsequent plasma proteins sedimentation by centrifuging at 5500 rpm for 5 min. Supernatants were analyzed by LC-MS using Shimadzu VP HPLC system including vacuum degasser, gradient pumps, reverse phase column, column oven and autosampler. The HPLC system was coupled with tandem mass spectrometer API 3000 (PE Sciex, Foster City, CA, USA). Both the positive and negative ion modes of the TurboIonSpray ion source were used. The acquisition and analysis of the data were performed using Analyst 1.5.2 software (PE Sciex, API 3000 mass spectrometer, Foster City, CA, USA). The percentage of the test compounds remaining after incubation in plasma and their half-lives (T1/2) were calculated.

[8] = Mouse plasma stability test; format: in vitro ADME; conditions: 37 °C, up to 24 h, read-out: t1/2 (Mouse Plasma) (converted)
Procedure: as §7

[9] = HCT116, HCR = normoxic IC50/hypoxic IC50
[10] = H460, HCR = normoxic IC50/hypoxic IC50
[11] = Homo sapiens, HCT-116, HCT116, hypoxia, read-out: IC50 (Hypoxia)
[12] = Homo sapiens, HCT-116, HCT116, normoxia, read-out: IC50 (Normoxia)
[13] = Homo sapiens, NCI-H460, H460, hypoxia, read-out: IC50 (Hypoxia)
[14] = Homo sapiens, NCI-H460, H460, normoxia, read-out: IC50 (Normoxia)

Cc1nccn1CC1CCc2c(c3ccccc3n2C)C1=O (stereo not shown) [Ondansetron]
solubility [1]: 96 ± 3 µM (≈ 28.2 µg/mL)

CS(=O)(=O)OCCN(CCBr)c1c(C(=O)NCCO)cc([N+](=O)[O-])cc1[N+](=O)[O-] [PR-104A]
IC50 (HCT116 [2]; HCT116, hypoxia, read-out: IC50 (Hypoxia)): 861 ± 122 nM | IC50 (HCT116 [2]; HCT116, normoxia, read-out: IC50 (Normoxia)): 16500 nM | HCR (Hypoxia Cytotoxicity Ratio) (HCT116 [2]; [9]): 10.5 | IC50 (H460; H460, hypoxia, read-out: IC50 (Hypoxia)): 533 ± 47 nM | IC50 (H460; H460, normoxia, read-out: IC50 (Normoxia)): 1340 ± 386 nM | HCR (Hypoxia Cytotoxicity Ratio) (H460; [10]): 2.5

CN1CCN(C2=Nc3cc(Cl)ccc3Nc3ccccc32)CC1 [Clozapine]
Permeability (Papp) [3]: −5.1 ± 0.12 Log [10^−6 cm/s]

CN(C)CCCN1c2ccccc2Sc2ccc(Cl)cc21 [Chlorpromazine]
Permeability (Papp) [3]: −5.4 ± 0.13 Log [10^−6 cm/s]

COC(=O)Nc1nc2ccc(C(=O)c3ccccc3)cc2[nH]1 [Mebendazole]
logD (LogD determination): 3.26 ± 0.01

COc1cc2c3c(c4cc(OC)c(OC)cc4c2cc1OC)CN1CCC[C@H]1C3 [(S)-Tylophorine]
IC50 (HCT116 [4]; HCT-116, read-out: IC50 HCT116): 85 ± 6 nM | logD (LogD determination): 3.14 ± 0.02 | solubility [1]: 2 µM (≈ 0.787 µg/mL) | IC50 (MRC5; MRC5, read-out: IC50 MRC5): 27 ± 2 nM | IC50 (CHO-K1; CHO-K1, read-out: IC50 CHO-K1): 35 ± 42 nM | HCR (Hypoxia Cytotoxicity Ratio) (HCT116 [2]; [9]): 0.5 | IC50 (HCT116 [2]; [11]): 50.1 ± 18 nM | IC50 (HCT116 [2]; [12]): 35.1 ± 15 nM | fraction unbound [5]: 0.061 | IC50 (MCF7; MCF7, read-out: IC50 MCF7): 62 ± 13 nM | IC50 (HEK293; HEK293, read-out: IC50 HEK293): 16 ± 26 nM | Permeability (Papp) [3]: −5.4 ± 0.17 Log [10^−6 cm/s] | half-life at 2 μM [6]: 2.12 ± 0.05 h | IC50 (SW480; SW480, read-out: IC50 SW480): 69 ± 20 nM | HCR (Hypoxia Cytotoxicity Ratio) (H460; [10]): 1.1 | IC50 (H460; [13]): 102 ± 32 nM | IC50 (H460; [14]): 108 ± 28 nM | IC50 (RKO): 202 ± 3 nM

COc1cc2c3c(c4cc(OC)c(OC)cc4c2cc1OC)CN1CCC[C@@H]1C3 [(R)-Tylophorine]
IC50 (HCT116 [4]; HCT-116, read-out: IC50 HCT116): 440 ± 36 nM | IC50 (MRC5; MRC5, read-out: IC50 MRC5): 95 ± 6 nM | HCR (Hypoxia Cytotoxicity Ratio) (HCT116 [2]; [9]): 0.6 | IC50 (HCT116 [2]; [11]): 56.4 ± 35 nM | IC50 (HCT116 [2]; [12]): 1710 ± 965 nM | IC50 (MCF7; MCF7, read-out: IC50 MCF7): 101 ± 88 nM | IC50 (SW480; SW480, read-out: IC50 SW480): 1150 ± 244 nM | HCR (Hypoxia Cytotoxicity Ratio) (H460; [10]): 1.1 | IC50 (H460; [13]): 161 ± 77 nM | IC50 (H460; [14]): 175 ± 78 nM | IC50 (RKO): 338 ± 61 nM

CC(C)[N+](C)(CCOC(=O)C1c2ccccc2Oc2ccccc21)C(C)C [Propantheline]
half-life at 1 μM [7]: < 3 h | half-life at 1 μM [8]: < 3 h

CNC(=C[N+](=O)[O-])NCCSCc1ccc(CN(C)C)o1 [Ranitidine]
Permeability (Papp) [3]: <−7 Log [10^−6 cm/s]

Cn1c(COP(=O)(NCCBr)NCCBr)cnc1[N+](=O)[O-] [Evofosfamide]
HCR (Hypoxia Cytotoxicity Ratio) (HCT116 [2]; [9]): 85 | IC50 (HCT116 [2]; [11]): 20.1 ± 3 nM | IC50 (HCT116 [2]; [12]): 23.9 ± 7 nM | HCR (Hypoxia Cytotoxicity Ratio) (H460; [10]): 251 | IC50 (H460; [13]): 17.2 ± 1 nM | IC50 (H460; [14]): 4320 ± 1930 nM

COc1ccc2c3c(c4cc(OC)c(OC)cc4c2c1)C[C@H]1CCCN1C3 [(R)-Antofine, (R)-antofine]
IC50 (HCT116 [4]; HCT-116, normoxia, read-out: IC50 HCT116): 2 nM | logD (LogD determination): 3.68 ± 0.03 | solubility [1]: 27 ± 2 µM (≈ 9.81 µg/mL) | IC50 (MRC5; MRC5, normoxia, read-out: IC50 MRC5): 6 ± 2 nM | IC50 (CHO-K1; CHO-K1, normoxia, read-out: IC50 CHO-K1): 33 ± 50 nM | HCR (Hypoxia Cytotoxicity Ratio) (HCT116 [2]): 0.4 | IC50 (HCT116 [2]; [11]): 16.7 ± 9 nM | IC50 (HCT116 [2]; [12]): 23.9 ± 7 nM | fraction unbound [5]: 0.019 | IC50 (MCF7; MCF7, normoxia, read-out: IC50 MCF7): 2 nM | IC50 (HEK293; HEK293, normoxia, read-out: IC50 HEK293): 30 ± 43 nM | Permeability (Papp) [3]: −5.6 ± 0.58 Log [10^−6 cm/s] | Kel (elimination rate constant) ([6]; mouse, 2 μM): 0.002 ± 0 min⁻¹ | half-life at 2 μM ([6]; mouse): 1.12 ± 0.035 h | IC50 (SW480; SW480, normoxia, read-out: IC50 SW480): 9 ± 2 nM | HCR (Hypoxia Cytotoxicity Ratio) (H460): 0.6 | IC50 (H460; [13]): 25.4 ± 9 nM | IC50 (H460; [14]): 29.2 ± 12 nM | IC50 (RKO; normoxia): 6 ± 1 nM
